US6667387B1, “HCV core peptides” (priority 1992, dated 2003)
Ends that are not written are not given here. * marks the point of attachment. Biotin = O=C1N[C@H]2[C@H](CS[C@H]2CCCCC(=O)*)N1

Test system: antibodies to HTLV-I and HTLV-II (serum panel PRP203)
Experiment: Line immunoassay (LIA) with biotinylated HTLV-I and HTLV-II peptides
Assay type: binding, human
Conditions: sample nr. 12 of panel PRP203
Text: A number of these peptides were used to prepare LIA strips for the detection of antibodies of HTLV. Several of the peptides, such as I-p19 and I-gp46-4, which are derived from regions of the HTLV-I p19 gag protein and envelope glycoprotein, respectively, are expected to be recognized by antibodies produced as a result of both HTLV-I and HTLV-II infection since these sequences are highly homologous in the two viruses. Others, such as I-gp46-3, I-gp46-6 for HTLV-I, and II-gp52-1, II-gp52-2 and II-gp52-3 for HTLV-II may be useful for detection of antibodies as well as discrimination. Since there is some homology between the HTLV-I and HTLV-II sequences, cross-reactions are to be expected. Nevertheless, the intensities of the reactions to the various peptides should reveal the identity of the virus to which the antibodies were produced.
The LIA strips were evaluated using a commercially available serum panel (Boston Biomedia Inc., mixed titer panel, PRP203). The test results are in complete agreement with the analysis provided by distributor. […] This sample could not be differentiated using these peptides, nor could this sample be differentiated by any other test used by the distributor of the serum panel. Sample nr. […] In an additional experiment, an ELISA was performed using all 10 of the biotinylated HTLV-I and HTLV-II peptides. […]

Question: “Bio Gly Gly Pro Pro Pro Pro Ser Ser Pro Thr His Asp Pro Pro Asp Ser Asp Pro Gln Ile Pro Pro Pro Tyr Val Glu Pro Thr Ala Pro Gln Val Leu (Biotin-GGPPPPSSPTHDPPDSDPQIPPPYVEPTAPQVL) [I-p19]” was tested. Which “LIA reaction” value did it give?
Answer: Its value is “positive reaction”.
